From patent US8871753B2, “Macrocyclic compounds and their use as kinase inhibitors” (Incyte Corporation, priority 2008, dated 2014)
Where a name gives a salt, the structure may show the parent alone. Read-outs that look alike come from different tables or passages of the source.

Columns and labels:
Format in all cases: biochemical
TYK2 = TYK2 (Homo sapiens, UniProt P29597); assay: TYK2 kinase inhibition (Table A1)
[1] = target: T1, human JAK3 (a.a. 781-1124) (Homo sapiens, UniProt P52333); assay: In vitro JAK kinase assay (HTRF, phosphorylation of a biotinylated peptide), JAK3
T1 construct: JAK3 (a.a. 781-1124); His tag (N); made in house; host or cells: insect cells (baculovirus)
In short: (§1)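 Phosphorylation of a biotinylated peptide by the JAK kinase domain, detected by HTRF with Eu-Py20 and SA-APC. ATP was 90 μM for JAK1, 30 μM for JAK2 and 3 μM for JAK3. Reactions ran 1 h at room temperature and were stopped with EDTA, followed by 40 min antibody binding.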

[2] = target: T2, human JAK2 (a.a. 828-1132) (Homo sapiens, UniProt O60674); assay: In vitro JAK kinase assay (HTRF, phosphorylation of a biotinylated peptide), JAK2
T2 construct: JAK2 (a.a. 828-1132); His tag (N); made in house; host or cells: insect cells (baculovirus)
In short: as §1

[3] = target: T3, human JAK1 (a.a. 837-1142) (Homo sapiens, UniProt P23458); assay: In vitro JAK kinase assay (HTRF, phosphorylation of a biotinylated peptide), JAK1; settings: read-out: JAK1 IC50
T3 construct: human JAK1 (a.a. 837-1142); His tag (N); made in house; host or cells: insect cells (baculovirus)
In short: as §1

[4] = target: T4, Recombinant Human Anaplastic Lymphoma Kinase (Homo sapiens, UniProt Q9UM73); assay: ALK HTRF kinase assay
T4 construct: purchased Invitrogen, Carlsbad, Calif
In short: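 Readout was HTRF between a Eu-W1024 anti-phosphotyrosine antibody and streptavidin-APC bound to biotinylated peptide phosphorylated by recombinant human ALK. IC50 values came from a four-parameter logistic fit.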

[5] = method AA1 (3 μM ATP) or AA2 (1000 μM ATP), not stated per value
[6] = method AA1 (30 μM ATP) or AA2 (1000 μM ATP), not stated per value
[7] = method AA1 (90 μM ATP) or AA2 (1000 μM ATP), not stated per value
[8] = compound at 500 nM or 1 mM, 90 μM ATP
[9] = compound at a concentration of 500 nM or 1 mM (not specified), cells shown as percentage
[10] = percentage inhibition of the example compound at a concentration of 500 nM or 1 mM (not specified which)
[11] = Table B1, cells without percent sign

T2 sequence (O60674 828-1132): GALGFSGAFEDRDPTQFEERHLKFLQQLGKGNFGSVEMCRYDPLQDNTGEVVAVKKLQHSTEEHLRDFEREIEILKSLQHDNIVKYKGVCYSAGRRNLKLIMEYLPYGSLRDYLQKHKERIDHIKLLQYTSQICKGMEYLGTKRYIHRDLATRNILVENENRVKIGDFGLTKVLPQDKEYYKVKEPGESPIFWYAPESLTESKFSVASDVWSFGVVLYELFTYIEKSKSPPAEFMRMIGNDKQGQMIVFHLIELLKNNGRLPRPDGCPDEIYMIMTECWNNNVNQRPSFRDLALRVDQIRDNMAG
Sequence of TYK2 (P29597 whole entry): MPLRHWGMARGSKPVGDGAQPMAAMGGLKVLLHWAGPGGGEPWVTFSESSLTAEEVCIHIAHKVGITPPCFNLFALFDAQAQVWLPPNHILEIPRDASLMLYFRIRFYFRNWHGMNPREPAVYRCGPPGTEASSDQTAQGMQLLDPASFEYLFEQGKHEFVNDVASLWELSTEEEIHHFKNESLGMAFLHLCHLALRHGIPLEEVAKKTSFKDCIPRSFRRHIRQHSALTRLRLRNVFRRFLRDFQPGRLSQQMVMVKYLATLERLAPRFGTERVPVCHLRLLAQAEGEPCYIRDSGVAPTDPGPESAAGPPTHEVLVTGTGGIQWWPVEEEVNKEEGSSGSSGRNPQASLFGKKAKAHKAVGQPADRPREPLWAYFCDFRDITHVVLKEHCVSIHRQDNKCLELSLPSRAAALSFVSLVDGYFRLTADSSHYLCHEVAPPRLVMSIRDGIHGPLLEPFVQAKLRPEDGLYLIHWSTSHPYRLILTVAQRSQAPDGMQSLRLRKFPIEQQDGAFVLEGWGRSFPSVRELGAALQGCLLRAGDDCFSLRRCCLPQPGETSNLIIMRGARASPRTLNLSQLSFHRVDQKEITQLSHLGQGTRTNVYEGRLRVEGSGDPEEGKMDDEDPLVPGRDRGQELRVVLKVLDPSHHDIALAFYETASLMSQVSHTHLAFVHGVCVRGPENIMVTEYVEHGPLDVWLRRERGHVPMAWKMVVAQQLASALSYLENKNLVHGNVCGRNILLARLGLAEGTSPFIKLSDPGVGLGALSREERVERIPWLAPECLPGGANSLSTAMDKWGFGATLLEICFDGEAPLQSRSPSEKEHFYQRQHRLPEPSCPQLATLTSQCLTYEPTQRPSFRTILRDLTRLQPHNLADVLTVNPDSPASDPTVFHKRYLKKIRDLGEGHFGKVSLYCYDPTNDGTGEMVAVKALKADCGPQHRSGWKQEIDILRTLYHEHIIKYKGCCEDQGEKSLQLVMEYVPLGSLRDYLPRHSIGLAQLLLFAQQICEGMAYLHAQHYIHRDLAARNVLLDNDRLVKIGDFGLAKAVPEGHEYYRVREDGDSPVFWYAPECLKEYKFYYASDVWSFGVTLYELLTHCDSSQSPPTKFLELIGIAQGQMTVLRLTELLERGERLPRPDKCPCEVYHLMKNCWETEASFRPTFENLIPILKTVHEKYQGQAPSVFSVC
T1 sequence (P52333 781-1124): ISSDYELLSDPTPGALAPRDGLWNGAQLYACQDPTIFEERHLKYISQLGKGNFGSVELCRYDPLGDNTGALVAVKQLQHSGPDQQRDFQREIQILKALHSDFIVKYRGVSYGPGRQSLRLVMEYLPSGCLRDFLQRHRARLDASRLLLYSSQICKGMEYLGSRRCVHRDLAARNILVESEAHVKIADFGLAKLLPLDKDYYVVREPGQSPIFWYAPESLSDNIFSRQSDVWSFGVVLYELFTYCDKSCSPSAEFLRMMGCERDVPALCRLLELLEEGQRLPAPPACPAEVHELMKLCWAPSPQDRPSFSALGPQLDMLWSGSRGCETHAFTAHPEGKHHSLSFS
T4 sequence (Q9UM73 19-1620): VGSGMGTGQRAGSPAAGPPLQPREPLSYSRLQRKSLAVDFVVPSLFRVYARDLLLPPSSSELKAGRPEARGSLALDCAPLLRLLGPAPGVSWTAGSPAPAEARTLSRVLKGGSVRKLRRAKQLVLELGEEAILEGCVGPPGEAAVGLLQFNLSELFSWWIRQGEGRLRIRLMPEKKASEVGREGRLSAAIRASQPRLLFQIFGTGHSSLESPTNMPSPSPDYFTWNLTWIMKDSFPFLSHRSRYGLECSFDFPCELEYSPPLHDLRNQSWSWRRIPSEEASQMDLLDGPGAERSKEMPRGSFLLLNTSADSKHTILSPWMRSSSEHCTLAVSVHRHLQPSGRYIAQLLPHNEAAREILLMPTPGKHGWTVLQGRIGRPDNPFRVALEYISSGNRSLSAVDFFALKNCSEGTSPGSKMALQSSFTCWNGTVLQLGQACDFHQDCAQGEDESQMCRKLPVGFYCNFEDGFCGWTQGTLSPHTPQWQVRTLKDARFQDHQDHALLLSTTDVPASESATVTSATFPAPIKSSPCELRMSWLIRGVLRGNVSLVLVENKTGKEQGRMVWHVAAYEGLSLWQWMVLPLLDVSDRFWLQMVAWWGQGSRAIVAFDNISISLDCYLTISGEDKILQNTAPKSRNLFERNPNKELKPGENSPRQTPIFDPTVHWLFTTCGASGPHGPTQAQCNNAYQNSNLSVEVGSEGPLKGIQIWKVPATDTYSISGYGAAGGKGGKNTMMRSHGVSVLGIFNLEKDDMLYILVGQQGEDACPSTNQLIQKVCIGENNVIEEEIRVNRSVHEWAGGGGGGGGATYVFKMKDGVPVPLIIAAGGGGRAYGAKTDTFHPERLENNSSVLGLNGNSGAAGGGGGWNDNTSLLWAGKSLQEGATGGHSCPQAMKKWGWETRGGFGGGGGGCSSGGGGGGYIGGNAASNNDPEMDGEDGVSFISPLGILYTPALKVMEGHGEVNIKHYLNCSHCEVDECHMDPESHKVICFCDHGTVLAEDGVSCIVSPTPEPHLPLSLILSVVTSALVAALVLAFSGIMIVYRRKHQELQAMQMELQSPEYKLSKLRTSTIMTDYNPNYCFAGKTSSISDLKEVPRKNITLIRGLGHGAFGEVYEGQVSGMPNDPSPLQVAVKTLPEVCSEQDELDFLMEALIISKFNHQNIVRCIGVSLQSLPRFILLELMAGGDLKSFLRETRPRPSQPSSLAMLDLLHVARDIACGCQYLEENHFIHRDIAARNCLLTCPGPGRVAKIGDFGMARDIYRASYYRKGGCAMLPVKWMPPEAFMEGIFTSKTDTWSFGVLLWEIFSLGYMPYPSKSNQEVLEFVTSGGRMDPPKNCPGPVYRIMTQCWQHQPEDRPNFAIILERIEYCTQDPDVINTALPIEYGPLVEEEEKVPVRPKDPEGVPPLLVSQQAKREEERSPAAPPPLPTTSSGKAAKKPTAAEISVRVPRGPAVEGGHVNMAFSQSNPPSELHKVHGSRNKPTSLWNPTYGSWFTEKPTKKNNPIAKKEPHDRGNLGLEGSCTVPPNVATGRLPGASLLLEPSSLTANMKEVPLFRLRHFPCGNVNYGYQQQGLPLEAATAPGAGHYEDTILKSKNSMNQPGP
T3 sequence (P23458 849-1154): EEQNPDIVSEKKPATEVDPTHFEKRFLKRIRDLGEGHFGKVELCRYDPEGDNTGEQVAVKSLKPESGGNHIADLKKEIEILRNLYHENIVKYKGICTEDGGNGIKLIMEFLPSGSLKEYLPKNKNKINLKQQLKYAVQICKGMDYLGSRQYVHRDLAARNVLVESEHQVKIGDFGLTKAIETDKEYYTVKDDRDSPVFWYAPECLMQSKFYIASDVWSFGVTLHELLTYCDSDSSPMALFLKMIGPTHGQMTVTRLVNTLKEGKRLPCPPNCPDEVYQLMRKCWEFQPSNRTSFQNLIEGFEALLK

| Structure (SMILES) | IC50 (TYK2) | IC50 [1, 5] | IC50 [2, 6] | IC50 [3, 7] | ALK % of inhibition at a concentration of 500 nM or 1 mM [4, 8] | IC50 (TYK2; Table B1) | IC50 ([1]; Table B1) | IC50 ([2]; Table B1) | IC50 ([3]; Table B1) | further results |
| --- | --- | --- | --- | --- | --- | --- | --- | --- | --- | --- |
| Cc1cc(C(=O)N2CCC(CCC(=O)Nc3ccc4cc3CCc3cncc(c3)Nc3ncc(Cl)c(n3)N4)CC2)no1 [Example A125, N-[6-Chloro-2,4,8,18,22-pentaazatetracyclo[14.3.1.1(3,7).1(9,13)]docosa-1(20),3(22),4,6,9(21),10,12,16,18-nonaen-12-yl]-3-{1-[(5-methylisoxazol-3-yl)carbonyl]piperidin-4-yl}propanamide bis(trifluoroacetate)] | 5.3 nM | 90 nM | 4.9 nM | 1.7 nM | 25% |  |  |  |  |  |
| CCOc1ccccc1NC(=O)Nc1ccc2cc1CCc1cccc(c1)Nc1ncc(Cl)c(n1)N2 [Example B106, N-[6-Chloro-2,4,8,22-tetraazatetracyclo[14.3.1.1(3,7).1(9,13)]docosa-1(20), 3(22),4,6,9(21),10,12,16,18-nonaen-12-yl]-N′-(2-ethoxyphenyl)urea trifluoroacetate] |  |  |  |  |  | 18 nM | 90 nM | 9.6 nM | 4.3 nM | ALK % of inhibition at a concentration of 500 nM or 1 mM [4, 9]: 5.7% |
| CN(Cc1ccc2cc1CCc1cncc(c1)Nc1ncc(Cl)c(n1)N2)C(=O)C1CCN(c2ncccn2)CC1 [Example B338, N-{[6-Chloro-2,4,8,18,22-pentaazatetracyclo[14.3.1.1(3,7).1(9,13)]docosa-1(20),3(22),4,6,9(21),10,12,16,18-nonaen-12-yl]methyl}-N-methyl-1-pyrimidin-2-ylpiperidine-4-carboxamide tris(trifluoroacetate)] |  |  |  |  |  | > 200 nM | > 200 nM | 130 nM | 70 nM | ALK % of inhibition at a concentration of 500 nM or 1 mM [4, 10]: 21% |
| O=C(CC1CCN(C(=O)Nc2ccccc2)CC1)Nc1ccc2cc1CCc1cncc(c1)Nc1ncc(Cl)c(n1)N2 [Example A77, 4-(2-{[6-Chloro-2,4,8,18,22-pentaazatetracyclo[14.3.1.1(3,7).1(9,13)]docosa-1(20),3(22),4,6,9(21),10,12,16,18-nonaen-12-yl]amino}-2-oxoethyl)-N-phenylpiperidine-1-carboxamide bis(trifluoroacetate)] | 4 nM | 35 nM | 0.7 nM | 0.6 nM | 35% |  |  |  |  |  |
| Clc1cnc2nc1Nc1cccc(c1)SSc1cccc(c1)N2 [Example D12, 6-Chloro-14,15-dithia-2,4,8,22-tetraazatetracyclo[14.3.1.1(3,7).1(9,13)]docosa-1(20),3(22),4,6,9(21),10,12,16,18-nonaene trifluoroacetate] |  |  |  |  |  |  |  |  |  | IC50 (TYK2; Table D1): 324 nM; IC50 ([1]; Table D1): 369 nM; IC50 ([2]; Table D1): 290 nM; IC50 ([3]; Table D1): 178 nM; IC50 ([4]; Table D1, 90 μM ATP): > 10000 nM |
| O=C(CNC(=O)Nc1ccccc1)Nc1ccc2cc1CCc1cccc(c1)Nc1ncc(Cl)c(n1)N2 [Example A66, 2-[(Anilinocarbonyl)amino]-N-[6-chloro-2,4,8,22-tetraazatetracyclo[14.3.1.1(3,7).1(9,13)]docosa-1(20),3(22),4,6,9(21),10,12,16,18-nonaen-12-yl]acetamide trifluoroacetate] | 21 nM | 6.2 nM | 3.1 nM | 9 nM | 26% |  |  |  |  |  |
| Cc1cc(C(=O)N2CCC(CN(C)Cc3ccc4cc3CCc3cncc(c3)Nc3ncc(Cl)c(n3)N4)CC2)no1 [Example B344, 1-[6-Chloro-2,4,8,18,22-pentaazatetracyclo[14.3.1.1(3,7).1(9,13)]docosa-1(20),3(22),4,6,9(21),10,12,16,18-nonaen-12-yl]-N-methyl-N-({1-[(5-methylisoxazol-3-yl)carbonyl]piperidin-4-yl}methyl)methanamine tris(trifluoroacetate)] |  |  |  |  |  | 276 nM | > 400 nM | 90 nM | 14 nM | ALK % of inhibition at a concentration of 500 nM or 1 mM [4, 10]: 43% |
| O=C(Nc1ccc2cc1CCc1cccc(c1)Nc1ncc(Cl)c(n1)N2)C1CCCCC1 [Example B63, N-[6-Chloro-2,4,8,22-tetraazatetracyclo[14.3.1.1(3,7).1(9,13)]docosa-1(20), 3(22),4,6,9(21),10,12,16,18-nonaen-12-yl]cyclohexanecarboxamide trifluoroacetate] |  |  |  |  |  | 34 nM | 56 nM | 12 nM | 18 nM | IC50 [4, 11]: 600 nM |
| CCC(=O)N1CCC(CC(=O)Nc2ccc3cc2CCc2cncc(c2)Nc2ncc(Cl)c(n2)N3)CC1 [Example A104, N-[6-Chloro-2,4,8,18,22-pentaazatetracyclo[14.3.1.1(3,7).1(9,13)]docosa-1(20),3(22),4,6,9(21),10,12,16,18-nonaen-12-yl]-2-(1-propionylpiperidin-4-yl)acetamide bis(trifluoroacetate)] | 4.4 nM | 148 nM | 8.3 nM | 81 nM | 26% |  |  |  |  |  |
| CC(C)(C)NC(=O)N1CCC(CC(=O)Nc2ccc3cc2CCc2cccc(c2)Nc2ncc(Cl)c(n2)N3)CC1 [Example A85, N-(tert-Butyl)-4-(2-{[6-chloro-2,4,8,22-tetraazatetracyclo[14.3.1.1(3,7).1(9,13)]docosa-1(20),3(22),4,6,9(21),10,12,16,18-nonaen-12-yl]amino}-2-oxoethyl)piperidine-1-carboxamide trifluoroacetate] | 33 nM | 147 nM | 13 nM | 49 nM | 19% |  |  |  |  |  |
| O=S(=O)(Nc1ccc2cc1CCc1cccc(c1)Nc1ncc(Cl)c(n1)N2)c1ccccc1 [Example B136, N-[6-Chloro-2,4,8,22-tetraazatetracyclo[14.3.1.1(3,7).1(9,13)]docosa-1(20), 3(22),4,6,9(21),10,12,16,18-nonaen-12-yl]benzenesulfonamide trifluoroacetate] |  |  |  |  |  | 0.76 nM | 2.3 nM | 0.1 nM | 0.24 nM | IC50 [4, 11]: 240 nM |
| O=C(CC1CCN(C(=O)c2ccccc2)CC1)Nc1ccc2cc1CCc1cccc(c1)Nc1ncc(Cl)c(n1)N2 [Example A56, 2-(1-Benzoylpiperidin-4-yl)-N-[6-chloro-2,4,8,22-tetraazatetracyclo[14.3.1.1(3,7).1(9,13)]docosa-1(20),3(22),4,6,9(21),10,12,16,18-nonaen-12-yl]acetamide trifluoroacetate] | 10 nM | 90 nM | 7.3 nM | 4.2 nM | 26% |  |  |  |  |  |
| O=C(Nc1ccccc1Cl)Nc1ccc2cc1CCc1cccc(c1)Nc1ncc(Cl)c(n1)N2 [Example B84, N-(2-Chlorophenyl)-N′-[6-chloro-2,4,8,22-tetraazatetracyclo[14.3.1.1(3,7).1(9,13)]docosa-1(20),3(22),4,6,9(21),10,12,16,18-nonaen-12-yl]urea trifluoroacetate] |  |  |  |  |  | 4.2 nM | 9.7 nM | 1.3 nM | 0.39 nM | IC50 [4, 11]: 730 nM |
| O=C(Nc1ccc2cc1CCc1cncc(c1)Nc1ncc(Cl)c(n1)N2)N1CCN(c2ccncc2)CC1 [Example B293, N-[6-Chloro-2,4,8,18,22-pentaazatetracyclo[14.3.1.1(3,7).1(9,13)]docosa-1(20),3(22),4,6,9(21),10,12,16,18-nonaen-12-yl]-4-pyridin-4-ylpiperazine-1-carboxamide tetrakis(trifluoroacetate)] |  |  |  |  |  | 150 nM | > 200 nM | > 200 nM | 60 nM | ALK % of inhibition at a concentration of 500 nM or 1 mM [4, 9]: 45% |
| O=C(Nc1ccc2cc1CCc1cccc(c1)Nc1ncc(Cl)c(n1)N2)C1CCN(C(=O)Nc2ccccc2)CC1 [Example A36, N(4)-[6-Chloro-2,4,8,22-tetraazatetracyclo[14.3.1.1(3,7).1(9,13)]docosa-1(20),3(22),4,6,9(21),10,12,16,18-nonaen-12-yl]-N(1)-phenylpiperidine-1,4-dicarboxamide trifluoroacetate] | 27 nM | 26 nM | 6.7 nM | 2.4 nM | 48% |  |  |  |  |  |
| O=C(NCCN1CCOCC1)Nc1ccc2cc1CCc1cccc(c1)Nc1ncc(Cl)c(n1)N2 [Example B254, N-[6-Chloro-2,4,8,22-tetraazatetracyclo[14.3.1.1(3,7).1(9,13)]docosa-1(20),3(22),4,6,9(21),10,12,16,18-nonaen-12-yl]-N′-(2-morpholin-4-ylethyl)urea bis(trifluoroacetate)] |  |  |  |  |  | 8.2 nM | 26 nM | 2.4 nM | 2 nM | ALK % of inhibition at a concentration of 500 nM or 1 mM [4, 9]: 18% |
